Values after ≈ are worked out from the molar mass of the structure shown. Values joined by “and” are separate entries in the source; they are usually repeats but may differ in a detail not shown here. Equal values may be shown once. Blank lines part the entries; values can stand above or below the compound they belong to.
Legend:
Assay in all cases: ≥ marks a high value that may be exact or a test limit, other limits are often not marked, values filed in µg/mL are converted to µM
[1] = system: Pseudomonas aeruginosa ATCC 27853
[2] = system: Bacillus cereus ATCC 10876
[3] = system: Escherichia coli ATCC 25922
[4] = system: Streptococcus iniae KCTC 3657
[5] = system: Staphylococcus aureus ATCC 29213
[6] = system: Salmonella enterica subsp. enterica serovar Typhimurium ATCC 14028
Escherichia coli ESBL = system: Escherichia coli ESBL
[7] = system: Candida parapsilosis ATCC 22019
[8] = system: Candida albicans ATCC 14053
[9] = system: Candida glabrata ATCC 2001
[10] = system: Candida tropicalis ATCC 750
Candida krusei ATCC 6258 = system: Candida krusei ATCC 6258
[11] = system: Cronobacter sakazakii ATCC 29544
[12] = system: Staphylococcus epidermidis ATCC 12228
Staphylococcus aureus MR = system: Staphylococcus aureus MR
[13] = system: Bacillus subtilis ATCC 23857
Pseudomonas aeruginosa = system: Pseudomonas aeruginosa
[14] = system: Escherichia coli ATCC 43827
[15] = system: Klebsiella pneumoniae ATCC 700603
Aspergillus flavus = system: Aspergillus flavus
[16] = system: Saccharomyces cerevisiae ATCC 2601
[17] = system: Candida parapsilosis IOC 4564
Aspergillus niger A296 = system: Aspergillus niger A296
[18] = system: Cryptococcus neoformans var. grubii H99
[19] = system: Aspergillus fumigatus NCPF 2109
[20] = system: Candida tropicalis IOC 4560
Candida albicans MDM8 = system: Candida albicans MDM8
[21] = system: Salmonella typhimurium CMCC 50013
[22] = system: Bacillus subtilis KCTC 3068
Escherichia coli C600 = system: Escherichia coli C600
Escherichia coli ML-35p = system: Escherichia coli ML-35p
[23] = system: Micrococcus luteus VKM B-1314
[24] = system: Staphylococcus aureus 209P
[25] = system: Bacillus megaterium VKM41
[26] = system: Escherichia coli BL21(DE3)
[27] = system: Bacillus licheniformis VK21
Acinetobacter baumannii = system: Acinetobacter baumannii
[28] = system: Pseudomonas aeruginosa PAO1
[29] = system: Bacillus subtilis VKM B-886
[30] = system: Candida tropicalis CGMCC 2.1975
Escherichia coli 1005 = system: Escherichia coli 1005
[31] = system: Staphylococcus aureus ATCC 25923
Streptococcus pneumoniae = system: Streptococcus pneumoniae
Candida albicans = system: Candida albicans
Staphylococcus aureus = system: Staphylococcus aureus
[32] = system: Candida parapsilosis CGMCC 2.3989
Klebsiella pneumoniae = system: Klebsiella pneumoniae
[33] = system: Salmonella enterica subsp. enterica serovar Pullorum ATCC 7913
Escherichia coli = system: Escherichia coli
[34] = system: Candida krusei CGMCC 2.1857
[35] = system: Staphylococcus aureus ATCC 43300

MIC (Escherichia coli C600): ≥ 64 µM
MIC (Escherichia coli ML-35p): ≥ 64 µM
MIC [23]: 16 µM (≈ 28.7 µg/mL)
MIC [24]: 16 µM (≈ 28.7 µg/mL)
MIC [25]: 16 µM (≈ 28.7 µg/mL)
MIC [26]: ≥ 64 µM
MIC [5]: > 16 µM
MIC [27]: 16 µM (≈ 28.7 µg/mL)
MIC (Acinetobacter baumannii): ≥ 64 µM
MIC [28]: > 64 µM
MIC [29]: 16 µM (≈ 28.7 µg/mL)
SMILES: CC[C@H](C)[C@H](NC(=O)[C@H](C)NC(=O)[C@@H](NC(=O)CNC(=O)[C@@H](NC(=O)[C@H](CC(N)=O)NC(=O)[C@H](CCCCN)NC(=O)[C@H](C)NC(=O)CNC(=O)[C@H](CC(=O)O)NC(=O)[C@H](Cc1c[nH]c2ccccc12)NC(=O)[C@@H](NC(=O)[C@H](CO)NC(=O)[C@H](CO)NC(=O)[C@H](Cc1c[nH]c2ccccc12)NC(=O)[C@H](Cc1ccccc1)NC(=O)CN)C(C)C)C(C)C)[C@@H](C)O)C(=O)O [GFWSSVWDGAKNVGTAI]

MIC [30]: 2 µM (≈ 3.15 µg/mL)
MIC (Escherichia coli 1005): 2 µM (≈ 3.15 µg/mL)
MIC [31]: 4 µM (≈ 6.29 µg/mL)
MIC [3]: 4 µM and > 2 µM
MIC [5]: 4 µM (≈ 6.29 µg/mL)
MIC [12]: 4 µM (≈ 6.29 µg/mL)
MIC (Streptococcus pneumoniae): ≥ 32 µM
MIC (Candida albicans): 2.83 µM (≈ 4.45 µg/mL)
MIC (Staphylococcus aureus): 8 µM (≈ 12.6 µg/mL)
MIC [32]: 16 µM (≈ 25.2 µg/mL)
MIC (Klebsiella pneumoniae): 32 µM (≈ 50.3 µg/mL)
MIC (Pseudomonas aeruginosa): 16 µM (≈ 25.2 µg/mL)
MIC [28]: 16 µM (≈ 25.2 µg/mL)
MIC [33]: 2 µM (≈ 3.15 µg/mL)
MIC (Escherichia coli): 8 µM (≈ 12.6 µg/mL)
MIC [34]: 4 µM (≈ 6.29 µg/mL)
MIC [35]: 2 µM (≈ 3.15 µg/mL)
MIC [6]: 4 µM (≈ 6.29 µg/mL)
SMILES: NC(=O)[C@H](CCCN=C(N)N)NC(=O)[C@H](Cc1c[nH]c2ccccc12)NC(=O)[C@H](CCCN=C(N)N)NC(=O)[C@H](Cc1c[nH]c2ccccc12)NC(=O)[C@H](Cc1c[nH]c2ccccc12)NC(=O)[C@H](Cc1c[nH]c2ccccc12)NC(=O)[C@H](CCCN=C(N)N)NC(=O)[C@H](Cc1c[nH]c2ccccc12)NC(=O)[C@@H](N)CCCN=C(N)N [RWRWWWRWR]

The next lines start with the compound.

SMILES: CC[C@H](C)[C@H](NC(=O)[C@H](Cc1ccccc1)NC(=O)[C@@H](NC(=O)[C@H](CCCCN)NC(=O)[C@@H](NC(=O)[C@H](CCCCN)NC(=O)[C@H](CCCCN)NC(=O)[C@H](Cc1ccccc1)NC(=O)[C@@H](NC(=O)[C@H](CCCCN)NC(=O)[C@H](CCCN=C(N)N)NC(=O)[C@H](Cc1ccccc1)NC(=O)CNC(=O)[C@H](CCCCN)NC(=O)[C@H](CCCCN)NC(=O)[C@@H](NC(=O)[C@H](CCCCN)NC(=O)[C@H](CCCN=C(N)N)NC(=O)[C@H](Cc1ccccc1)NC(=O)[C@H](Cc1ccccc1)NC(=O)[C@H](CCCCN)NC(=O)[C@H](CCCCN)NC(=O)[C@H](Cc1ccccc1)NC(=O)[C@H](CCCN=C(N)N)NC(=O)[C@H](CCCCN)NC(=O)[C@@H](NC(=O)[C@@H](N)CCCN=C(N)N)C(C)C)[C@@H](C)CC)[C@@H](C)CC)[C@@H](C)O)[C@@H](C)CC)C(=O)NCC(=O)O [RVKRFKKFFRKIKKGFRKIFKKTKIFIG]
MIC [1]: 0.839 µM (≈ 3 µg/mL)
MIC [2]: 12.9 µM (≈ 46 µg/mL)
MIC [3]: 0.559 µM (≈ 2 µg/mL)
MIC [4]: 8.95 µM (≈ 32 µg/mL)
MIC [5]: > 35.8 µM
MIC [6]: 0.42 µM (≈ 1.5 µg/mL)

SMILES: CC(C)C[C@H](NC(=O)[C@H](Cc1cnc[nH]1)NC(=O)[C@H](CC(C)C)NC(=O)[C@H](CO)NC(=O)[C@H](CC(C)C)NC(=O)[C@H](CCCCN)NC(=O)[C@H](Cc1ccccc1)NC(=O)[C@@H]1CCCN1)C(N)=O [PFKLSLHL]
MIC [1]: 32 µM (≈ 30.5 µg/mL)
MIC (Escherichia coli ESBL): ≥ 32 µM
MIC [7]: ≥ 63.9 µM
MIC [8]: ≥ 63.9 µM
MIC [3]: 32 µM (≈ 30.5 µg/mL)
MIC [9]: 31.4 µM (≈ 30 µg/mL)
MIC [10]: 15.7 µM (≈ 15 µg/mL)
MIC (Candida krusei ATCC 6258): 31.4 µM (≈ 30 µg/mL)
MIC [5]: 128 µM (≈ 122 µg/mL)
MIC [11]: ≥ 64 µM
MIC [12]: 64 µM (≈ 61 µg/mL)
MIC (Staphylococcus aureus MR): ≥ 128 µM
MIC [13]: ≥ 32 µM
MIC (Pseudomonas aeruginosa): 32 µM (≈ 30.5 µg/mL)
MIC [14]: ≥ 32 µM
MIC [15]: 64 µM (≈ 61 µg/mL)

SMILES: CC(C)C[C@H](NC(=O)[C@H](CC(C)C)NC(=O)[C@H](CCCCN)NC(=O)[C@@H](N)Cc1ccccc1)C(=O)N[C@@H](CO)C(=O)N[C@@H](Cc1cnc[nH]1)C(=O)N[C@@H](CO)C(=O)N[C@@H](CC(C)C)C(=O)N[C@@H](CC(C)C)C(=O)N[C@H](C(=O)N[C@H](C(=O)N[C@@H](CC(C)C)C(=O)N[C@@H](C)C(=O)N[C@@H](CO)C(=O)N[C@@H](Cc1cnc[nH]1)C(=O)N[C@@H](CC(C)C)C(=O)N1CCC[C@H]1C(=O)O)[C@@H](C)O)C(C)C [FKLLSHSLLVTLASHLP]
MIC (Aspergillus flavus): ≥ 50 µM
MIC [16]: 3.1 µM (≈ 5.82 µg/mL)
MIC [17]: 12.5 µM (≈ 23.5 µg/mL)
MIC (Aspergillus niger A296): 12.5 µM (≈ 23.5 µg/mL)
MIC [18]: 1.6 µM (≈ 3 µg/mL)
MIC [19]: 6.3 µM (≈ 11.8 µg/mL)
MIC [20]: 2.1 µM (≈ 3.94 µg/mL)
MIC (Candida albicans MDM8): 2.1 µM (≈ 3.94 µg/mL)

SMILES: CC[C@H](C)[C@H](NC(=O)[C@@H](N)CO)C(=O)N[C@@H](CO)C(=O)N[C@@H](CC(C)C)C(=O)N[C@@H](CC(C)C)C(=O)O [SISLL]
MIC [21]: ≥ 186 µM
MIC [22]: ≥ 133 µM
MIC [3]: 172 µM (≈ 91.4 µg/mL)
MIC [5]: 158 µM (≈ 83.9 µg/mL)

Reference: DBAASP
